Assay results as given in US11578074B2, “Nitrogenous heterocyclic compound, preparation method, intermediate, composition, and application” (SHANGHAI PHARMACEUTICALS HOLDING CO., LTD., priority 2017, dated 2023).
Like-named read-outs stand apart in the source and are kept apart here.

How the values were obtained:
ErbB2 kinase = molecular target: T1, ErbB2 kinase (Homo sapiens, UniProt P04626); experiment: EGFR/ErbB2 enzymatic experiment (HTRF kinEASE-TK), ErbB2; type: biochemical; conditions: ErbB2 kinase 0.06 ng/μL, ATP 4 μM; read-out: Kinase IC50 (nM) in vitro ErbB2
T1 construct: The final concentration of ErbB2 kinase was 0.06 ng/μL
Experimental: (§1) EGFR/ErbB2 Enzymatic Experiment
(§2) Firstly, 1× reaction buffer required for the kinase was prepared, then 5× Enzymatic buffer (HEPES 20 mM pH 7.0, NaN3 0.1%, BSA 0.05%, sodium orthovanadate 0.5 mM) was diluted in HTRF kinEASE-TK kit by 1 time with deionized water, and 50 nM Supplement Enzymatic buffer (SEB REAGENT), 1 mM MnCl2, 5 mM MfCl2, 1 mM DTT were added. Secondly, 5× compound was prepared, and 10 mM test compound storage solution was diluted in multiple steps with DMSO in a 96-well compound plate to prepare 100× compound as an initial concentration, which was then used as the first concentration to carry out a 3-fold gradient dilution with DMSO to obtain a total of 10 concentrations. Then 1 μL of gradient diluent was added to 19 μL of 1× reaction buffer to prepare 5× compound for later use. Then 2 μL of 5× compound was transferred from the 96-well plate into a 384-well plate. To the compound-free control wells was added 2 μL of the following liquid: 19 μL of 1× reaction buffer with addition of 1 μL of DMSO. To the blank control well was added 2 μL of 250 mM EDTA. […] In the fourth step of reaction termination, HTRF Detection buffer was used to prepare a mixture of 2×TK Antibody-EU (K) and Sa-XL665, and the amount of TK Antibody-EU (K) was 5 μL per well. After the enzyme reaction was carried out for 30 minutes, 10 μL of the above liquid was added to a 384-well plate, and the reaction was carried out at room temperature for 1 hour. […] RFU665 nM and RFU620 nM were measured, and RFU665 nM/RFU620 nM×10000 was used as final data for analysis.

EGFR kinase = EGFR kinase (Homo sapiens, UniProt P00533); experiment: EGFR/ErbB2 enzymatic experiment (HTRF kinEASE-TK), EGFR; type: biochemical; conditions: EGFR kinase 0.06 units/μL, ATP 1.65 μM; read-out: Kinase IC50 (nM) in vitro EGFR
Experimental: as §1, §2

[1] = system: N87 (human gastric cancer cell NCI-N87); experiment: In vitro proliferation inhibition assay of cell lines (CellTiter-Glo), N87; type: cell-based; conditions: N87 cells, 72 hours
Experimental: (§3) In Vitro Proliferation Inhibition Assay of Cell Lines
(§4) 1. Cell culture and inoculation: on the first day of the experiment, normal cultured cells were taken, and in the exponential growth state, after digestion and dispersion, the cell density was then adjusted to 8.8×10^4 cells/mL for BT-474, and 6.6×10^4 cells/mL for N87, and 90 μL of which were inoculated to each well of a 96-well cell culture plate; after the inoculation was completed, the microplate was cultured under the conditions of 37° C. and 5% CO2 overnight. 2. Dosing to the cells: on the second day of the experiment, the microplate was taken out from the incubator, and 10 μL of 10× compound was added to each well of the microplate, setting 2 duplicate wells for each drug concentration and 9 dosing concentrations for each compound. According to different cell lines, the initial concentration of each compound was different. Upon completion of addition, the microplate was placed under the conditions of 37° C. and 5% CO2 for 72 hours. 3. Data acquisition: the microplate was taken out from the incubator and was allowed to equilibrate at room temperature for 30 minutes. 100 μL of CellTiter-Glo® Luminescent Cell Viability Assay reaction solution which had been equilibrated at room temperature was added to each well, and the reaction solution was shaken at 1300 rpm for 2 minutes at room temperature. After that, the microplate was placed in HERAEUS Multifuge X1R centrifuge, centrifuged at 2000 rpm for 1 minute, and allowed to equilibrate at room temperature for 10 minutes. The fluorescence signal value was measured on EnVision™.

[2] = system: BT-474 (human breast cancer cell); experiment: In vitro proliferation inhibition assay of cell lines (CellTiter-Glo), BT-474; type: cell-based; conditions: BT-474 cells, 72 hours
Experimental: as §3
as §4, with “Cell culture and inoculation: on the first day of the experiment, normal cultured cells were taken, and in the exponential growth state, after digestion and dispersion, the cell density was then adjusted to 8.8×10^4 cells/mL for BT-474, and 6.6×10^4 cells/mL for N87, and 90 μL of which were inoculated to each well of a 96-well cell culture plate; after the inoculation was completed, the microplate was cultured under the conditions of 37° C. and 5% CO2 overnight.” left out

CYP3A4 = molecular target: T2, CYP3A4 (Homo sapiens, UniProt P08684); experiment: Direct inhibition (DI) of CYP3A4 in human liver microsomes; type: in vitro ADME; conditions: human liver microsomes 0.2 mg/mL, 10 μM compound
T2 construct: A system of 100 μL human liver microsomes; from tissue; host or cells: human liver microsomes
Experimental: (§5) Study on Direct Inhibition (DI) of CYP3A4, CYP2D6, CYP2C9, CYP2C19, CYP1A2
(§6) A system of 100 μL human liver microsomes (final concentration: 0.2 mg/mL) was used for direct inhibition under warm incubation. The system contained NADPH (final concentration: 1 mM), 10 μM compound, a positive inhibitor cocktail (Ketoconazole 10 μM, Quinidine: 10 μM, Sulfaphenazole: 100 μM, Naphthoflavone: 10 μM, Tranylcypromene 1000 μM), a negative control 10 μM DMSO and mixed probe substrates (Midazolam 10 μM, Testosterone 100 μM, Dextromethophan 10 μM, Diclofenac 20 μM, Phenetin 100 μM, Mephenytoin 100 μM). The reaction was terminated after incubation for 20 minutes. The relative activity of the enzymes was calculated by measuring the relative production of metabolites.

CYP2D6 = molecular target: T3, CYP2D6 (Homo sapiens, UniProt P10635); experiment: Direct inhibition (DI) of CYP2D6 in human liver microsomes; type: in vitro ADME; conditions: probe Dextromethorphan, human liver microsomes 0.2 mg/mL, 10 μM compound, read-out: Direct inhibition (DI) 2D6 (Dextromethorphan)
T3 construct: A system of 100 μL human liver microsomes; from tissue; host or cells: human liver microsomes
Experimental: as §5, §6

CYP2C9 = molecular target: T4, CYP2C9 (Homo sapiens, UniProt P11712); experiment: Direct inhibition (DI) of CYP2C9 in human liver microsomes; type: in vitro ADME; conditions: probe Diclofenac, human liver microsomes 0.2 mg/mL, 10 μM compound, read-out: Direct inhibition (DI) 2C9 (Diclofenac)
T4 construct: A system of 100 μL human liver microsomes; from tissue; host or cells: human liver microsomes
Experimental: as §5, §6

CYP1A2 = molecular target: T5, CYP1A2 (Homo sapiens, UniProt P05177); experiment: Direct inhibition (DI) of CYP1A2 in human liver microsomes; type: in vitro ADME; conditions: probe Phenacetin, human liver microsomes 0.2 mg/mL, 10 μM compound, read-out: Direct inhibition (DI) 1A2 (Phenacetin)
T5 construct: A system of 100 μL human liver microsomes; from tissue; host or cells: human liver microsomes
T5 sequence (P05177 1-516): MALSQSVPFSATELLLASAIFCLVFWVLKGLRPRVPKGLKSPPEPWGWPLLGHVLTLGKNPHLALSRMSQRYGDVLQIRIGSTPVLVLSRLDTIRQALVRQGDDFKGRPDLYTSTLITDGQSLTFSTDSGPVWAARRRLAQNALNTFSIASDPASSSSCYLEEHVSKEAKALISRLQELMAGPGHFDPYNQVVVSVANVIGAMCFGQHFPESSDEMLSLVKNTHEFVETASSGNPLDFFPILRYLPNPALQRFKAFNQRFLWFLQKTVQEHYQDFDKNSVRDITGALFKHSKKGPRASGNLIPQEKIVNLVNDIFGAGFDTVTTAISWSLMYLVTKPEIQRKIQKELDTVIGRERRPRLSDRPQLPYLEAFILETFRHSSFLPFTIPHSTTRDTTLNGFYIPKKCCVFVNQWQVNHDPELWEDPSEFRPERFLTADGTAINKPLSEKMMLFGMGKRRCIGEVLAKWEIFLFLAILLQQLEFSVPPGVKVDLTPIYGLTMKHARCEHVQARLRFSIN
Experimental: as §5, §6

CYP2C19 = molecular target: T6, CYP2C19 (Homo sapiens, UniProt P33261); experiment: Direct inhibition (DI) of CYP2C19 in human liver microsomes; type: in vitro ADME; conditions: probe Mephenytoin, human liver microsomes 0.2 mg/mL, 10 μM compound, read-out: Direct inhibition (DI) 2C19 (Mephenytoin)
T6 construct: A system of 100 μL human liver microsomes; from tissue; host or cells: human liver microsomes
Experimental: as §5, §6

[3] = probe Midazolam, read-out: Direct inhibition (DI) 3A4 (Midazolam)
[4] = probe Testosterone, read-out: Direct inhibition (DI) 3A4 (testosterone)

T6 sequence (P33261 whole entry): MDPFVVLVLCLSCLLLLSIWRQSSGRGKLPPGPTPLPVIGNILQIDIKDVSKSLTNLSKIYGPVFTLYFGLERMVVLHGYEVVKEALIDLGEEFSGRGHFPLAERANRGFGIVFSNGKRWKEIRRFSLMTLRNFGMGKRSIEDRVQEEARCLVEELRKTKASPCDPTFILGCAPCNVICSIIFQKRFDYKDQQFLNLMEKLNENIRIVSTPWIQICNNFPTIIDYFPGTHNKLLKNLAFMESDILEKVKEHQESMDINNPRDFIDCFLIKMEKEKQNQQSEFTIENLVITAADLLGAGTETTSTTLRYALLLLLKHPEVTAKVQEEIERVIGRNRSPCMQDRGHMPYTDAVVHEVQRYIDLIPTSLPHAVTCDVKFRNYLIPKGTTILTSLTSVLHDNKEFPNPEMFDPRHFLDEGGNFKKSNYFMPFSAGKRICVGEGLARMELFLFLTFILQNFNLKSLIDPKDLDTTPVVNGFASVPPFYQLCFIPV
T4 sequence (P11712 whole entry): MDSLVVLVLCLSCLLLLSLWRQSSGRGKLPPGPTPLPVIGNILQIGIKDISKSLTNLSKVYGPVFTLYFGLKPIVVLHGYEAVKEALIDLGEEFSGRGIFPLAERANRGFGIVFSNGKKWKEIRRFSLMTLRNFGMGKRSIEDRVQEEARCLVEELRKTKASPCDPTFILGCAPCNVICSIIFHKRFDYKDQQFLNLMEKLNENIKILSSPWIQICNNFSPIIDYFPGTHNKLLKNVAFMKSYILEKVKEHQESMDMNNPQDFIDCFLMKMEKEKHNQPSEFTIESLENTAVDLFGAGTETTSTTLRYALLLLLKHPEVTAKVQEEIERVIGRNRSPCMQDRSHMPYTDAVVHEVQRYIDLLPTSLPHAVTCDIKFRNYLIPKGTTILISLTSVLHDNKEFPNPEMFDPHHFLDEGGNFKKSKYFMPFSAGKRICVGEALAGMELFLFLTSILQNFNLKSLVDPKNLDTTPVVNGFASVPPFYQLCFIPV
EGFR kinase, sequence (P00533 25-1210): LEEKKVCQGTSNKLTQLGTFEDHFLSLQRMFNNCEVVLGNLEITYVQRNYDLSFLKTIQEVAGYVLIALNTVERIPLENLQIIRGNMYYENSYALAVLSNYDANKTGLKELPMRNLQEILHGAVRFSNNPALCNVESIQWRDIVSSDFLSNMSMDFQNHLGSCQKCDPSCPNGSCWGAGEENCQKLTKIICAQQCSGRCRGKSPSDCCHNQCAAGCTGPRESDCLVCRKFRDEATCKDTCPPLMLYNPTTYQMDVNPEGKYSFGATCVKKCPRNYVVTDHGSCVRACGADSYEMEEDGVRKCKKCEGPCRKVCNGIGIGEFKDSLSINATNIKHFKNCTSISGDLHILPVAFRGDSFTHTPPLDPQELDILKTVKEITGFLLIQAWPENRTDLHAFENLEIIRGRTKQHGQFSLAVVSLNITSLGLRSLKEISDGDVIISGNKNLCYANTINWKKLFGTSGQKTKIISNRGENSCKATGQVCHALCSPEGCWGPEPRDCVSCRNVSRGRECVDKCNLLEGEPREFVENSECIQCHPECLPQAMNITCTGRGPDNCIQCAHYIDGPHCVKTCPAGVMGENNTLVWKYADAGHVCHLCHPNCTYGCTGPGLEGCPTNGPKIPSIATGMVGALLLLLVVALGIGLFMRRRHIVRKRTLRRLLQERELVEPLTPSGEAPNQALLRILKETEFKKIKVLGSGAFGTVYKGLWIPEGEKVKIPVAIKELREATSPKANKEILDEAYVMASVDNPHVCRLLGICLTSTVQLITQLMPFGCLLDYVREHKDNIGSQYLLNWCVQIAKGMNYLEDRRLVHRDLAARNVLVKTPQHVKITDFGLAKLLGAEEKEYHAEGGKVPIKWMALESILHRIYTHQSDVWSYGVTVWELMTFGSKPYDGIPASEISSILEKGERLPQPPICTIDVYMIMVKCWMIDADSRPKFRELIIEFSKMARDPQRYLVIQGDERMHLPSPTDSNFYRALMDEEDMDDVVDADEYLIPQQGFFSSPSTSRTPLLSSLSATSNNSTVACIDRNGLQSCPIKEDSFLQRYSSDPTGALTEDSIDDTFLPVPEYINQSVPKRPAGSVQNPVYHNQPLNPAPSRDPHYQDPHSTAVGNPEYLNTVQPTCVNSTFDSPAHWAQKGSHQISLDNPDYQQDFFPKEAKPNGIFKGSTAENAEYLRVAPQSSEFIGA
T3 sequence (P10635 whole entry): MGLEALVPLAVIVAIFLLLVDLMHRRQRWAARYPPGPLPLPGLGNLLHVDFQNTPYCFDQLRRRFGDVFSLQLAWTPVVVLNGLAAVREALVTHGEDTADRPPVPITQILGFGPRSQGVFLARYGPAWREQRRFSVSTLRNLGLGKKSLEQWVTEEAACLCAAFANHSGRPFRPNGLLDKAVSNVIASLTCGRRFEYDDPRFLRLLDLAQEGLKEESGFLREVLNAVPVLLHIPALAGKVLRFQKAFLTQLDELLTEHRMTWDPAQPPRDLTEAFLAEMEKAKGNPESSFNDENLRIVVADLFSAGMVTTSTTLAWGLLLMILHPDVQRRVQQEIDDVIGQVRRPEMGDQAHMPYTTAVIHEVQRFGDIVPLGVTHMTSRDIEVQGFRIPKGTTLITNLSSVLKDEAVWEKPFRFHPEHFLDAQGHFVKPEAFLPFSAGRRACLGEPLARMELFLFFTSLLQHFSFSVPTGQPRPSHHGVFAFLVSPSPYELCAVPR
T2 sequence (P08684 whole entry): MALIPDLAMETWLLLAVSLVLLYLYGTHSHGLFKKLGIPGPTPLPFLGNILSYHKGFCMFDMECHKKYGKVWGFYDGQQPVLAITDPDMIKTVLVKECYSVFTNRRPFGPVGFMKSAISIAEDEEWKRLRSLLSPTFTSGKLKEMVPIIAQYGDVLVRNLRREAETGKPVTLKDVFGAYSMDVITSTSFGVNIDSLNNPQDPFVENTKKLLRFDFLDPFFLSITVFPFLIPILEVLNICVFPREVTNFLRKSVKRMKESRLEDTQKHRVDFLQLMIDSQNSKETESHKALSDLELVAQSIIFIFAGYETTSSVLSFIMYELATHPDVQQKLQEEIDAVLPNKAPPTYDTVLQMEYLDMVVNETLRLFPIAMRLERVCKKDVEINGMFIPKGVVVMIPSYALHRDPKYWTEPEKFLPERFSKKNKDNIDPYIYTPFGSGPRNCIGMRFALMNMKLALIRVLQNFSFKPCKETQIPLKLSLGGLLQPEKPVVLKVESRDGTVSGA
T1 sequence (P04626 23-1255): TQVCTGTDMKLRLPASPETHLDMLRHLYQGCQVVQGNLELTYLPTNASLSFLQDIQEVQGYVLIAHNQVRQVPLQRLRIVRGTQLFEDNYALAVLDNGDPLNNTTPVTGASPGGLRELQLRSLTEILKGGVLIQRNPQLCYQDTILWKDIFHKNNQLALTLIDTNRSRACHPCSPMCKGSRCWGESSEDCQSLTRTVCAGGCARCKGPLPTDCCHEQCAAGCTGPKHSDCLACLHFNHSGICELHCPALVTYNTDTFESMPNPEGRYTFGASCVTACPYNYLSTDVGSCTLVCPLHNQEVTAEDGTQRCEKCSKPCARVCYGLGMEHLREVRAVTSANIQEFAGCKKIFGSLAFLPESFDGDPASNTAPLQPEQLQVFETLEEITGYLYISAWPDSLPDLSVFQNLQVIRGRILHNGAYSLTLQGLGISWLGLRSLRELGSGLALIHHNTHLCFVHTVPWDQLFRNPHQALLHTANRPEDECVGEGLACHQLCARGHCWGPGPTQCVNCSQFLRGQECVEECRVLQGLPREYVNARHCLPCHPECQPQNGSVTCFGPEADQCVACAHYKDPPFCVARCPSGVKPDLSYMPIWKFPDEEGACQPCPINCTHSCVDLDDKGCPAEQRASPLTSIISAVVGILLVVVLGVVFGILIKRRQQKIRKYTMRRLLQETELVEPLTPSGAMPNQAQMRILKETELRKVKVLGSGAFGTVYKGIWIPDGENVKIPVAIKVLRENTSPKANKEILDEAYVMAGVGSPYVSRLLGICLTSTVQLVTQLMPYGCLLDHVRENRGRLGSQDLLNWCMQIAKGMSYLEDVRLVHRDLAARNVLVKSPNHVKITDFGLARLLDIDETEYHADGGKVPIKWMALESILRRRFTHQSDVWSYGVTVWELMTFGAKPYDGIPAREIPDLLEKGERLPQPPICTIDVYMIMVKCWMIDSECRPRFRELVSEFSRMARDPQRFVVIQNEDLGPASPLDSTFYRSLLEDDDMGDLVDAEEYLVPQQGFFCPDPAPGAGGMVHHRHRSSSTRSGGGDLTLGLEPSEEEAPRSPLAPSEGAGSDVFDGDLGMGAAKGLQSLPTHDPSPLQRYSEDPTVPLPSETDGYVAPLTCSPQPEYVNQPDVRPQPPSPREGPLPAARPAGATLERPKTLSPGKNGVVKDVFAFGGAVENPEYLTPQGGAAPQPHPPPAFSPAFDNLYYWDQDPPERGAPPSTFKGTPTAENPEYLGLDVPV

| IC50 (ErbB2 kinase) | IC50 (EGFR kinase) | IC50 [1] | IC50 [2] | inhibition at 20 min, 10 µM (CYP3A4; [3]) | inhibition at 20 min, 10 µM (CYP3A4; [4]) | inhibition at 20 min, 10 µM (CYP2D6) | inhibition at 20 min, 10 µM (CYP2C9) | inhibition at 20 min, 10 µM (CYP1A2) | inhibition at 20 min, 10 µM (CYP2C19) | SMILES |
| --- | --- | --- | --- | --- | --- | --- | --- | --- | --- | --- |
| 4.6 nM | 50.9 nM | 3.1 nM | 5.9 nM | 14% | 32% | 38% | 21% | 23% | 43% | CCOc1cc2ncnc(Nc3ccc(Oc4ccn5ncnc5c4)c(C)c3)c2cc1NC(=O)/C(F)=C\[C@@H]1CCCN1C |
| 17.5 nM | 136 nM | 19.4 nM | 10.3 nM | 61% | 72% | 11% | 17% | 11% | 28% | C=CC(=O)N1CCCC(Nc2ccc3ncnc(Nc4ccc(Oc5cc6nncn6cn5)c(C)c4)c3c2)C1 (stereo in doubt) [Final product of Embodiment 8, (R)-1-(3-((4-((4-([1,2,4]triazolo[4,3-c]pyrimidin-7-yloxy)-3-methylphenyl)amino)quinazolin-6-yl)amino)piperidin-1-yl)propan-2-en-1-one] |
| 0.947 nM | 14.4 nM | 4.45 nM | 5.07 nM | 91% | 94% | 25% | 74% | 47% | 37% | C=CC(=O)NC1CCC=C(c2ccc3ncnc(Nc4ccc(Oc5cc6nncn6cn5)c(C)c4)c3c2)C1 (stereo not shown) [Final product of Embodiment 1, N-(3-(4-((4-([1,2,4]triazolo[4,3-c]pyrimidin-7-yloxy)-3-methylphenyl)amino)quinazolin-6-yl)cyclohex-3-en-1-yl)acrylamide] |
| 3.83 nM | 24.3 nM | 15.6 nM | 15.3 nM | 54% | 61% | 4% | 26% | 14% | 9% | C=CC(=O)N[C@@H]1CCCN(c2ccc3ncnc(Nc4ccc(Oc5cc6nncn6cn5)c(C)c4)c3c2)C1 [Final product of Embodiment 3, (R)—N-(1-(4-((4-([1,2,4]triazolo[4,3-c]pyrimidin-7-yloxy)-3-methylphenyl)amino)quinazolin-6-yl)piperidin-3-yl) acrylamide] |
| 6.09 nM | 168 nM | 5.75 nM | 4.79 nM | 49% | 56% | 7% | 48% | < 0% | 23% | C=CC(=O)N1CCC(c2ccc3ncnc(Nc4ccc(Oc5cc6nncn6cn5)c(C)c4)c3c2)CC1 [Final product of Embodiment 4, 1-(4-(4-((4-([1,2,4]triazolo[4,3-c]pyrimidin-7-yloxy)-3-methylphenyl)amino)quinazolin-6-yl)piperidin-1-yl)propan-2-en-1-one] |
| 2.04 nM | 62.1 nM | 20.1 nM | 14.4 nM | 71% | 74% | 14% | 49% | 9% | 18% | C=CC(=O)N[C@H]1CCCN(c2ccc3ncnc(Nc4ccc(Oc5cc6nncn6cn5)c(C)c4)c3c2)C1 [Final product of Embodiment 5, (S)—N-(1-(4-((4-([1,2,4]triazolo[4,3-c]pyrimidin-7-yloxy)-3-methylphenyl)amino)quinazolin-6-yl)piperidin-3-yl)acrylamide] |
| 2.92 nM | 233 nM | 24 nM | 16.1 nM | 72% | 80% | 30% | 55% | 13% | 41% | C=C(F)C(=O)N1CC=C(c2ccc3ncnc(Nc4ccc(Oc5cc6nncn6cn5)c(C)c4)c3c2)CC1 [Final product of Embodiment 6, 1-(4-(4-((4-([1,2,4]triazolo[4,3-c]pyrimidin-7-yloxy)-3-methylphenyl)amino)quinazolin-6-yl)-5,6-dihydropyridin-1(2H)-yl)-2-fluoropropyl-2-en-1-one] |
|  |  |  |  | 3% | 9% | 16% | < 0% | < 0% | 18% | Cc1cc(Nc2ncnc3ccc(NC(=O)/C(F)=C\[C@H]4CCCN4C)cc23)ccc1Oc1ccn2ncnc2c1 [Final product of Embodiment 40] |
